Data as given in ChEMBL document CHEMBL1146675, “Kringle 5 peptide-albumin conjugates with anti-migratory activity” (Bioorg Med Chem Lett, 2004).
Peptide text beside a SMILES is read from it. * marks the point of attachment. Propanoyl(3-maleimido) = O=C1C=CC(=O)N1CCC(=O)*

Species: Homo sapiens
Assay: Percent of unbound maleimide to human serum albumin
Format: functional

In order of rising Activity:
1. CC(=O)N[C@@H](CCCN=C(N)N)C(=O)N[C@@H](CC(N)=O)C(=O)N1CCC[C@H]1C(=O)N[C@@H](CC(=O)O)C(=O)NCC(=O)N[C@@H](CC(=O)O)C(=O)N[C@H](C(=O)NCC(=O)NCC(=O)N1CCC[C@H]1C(=O)N[C@@H](Cc1c[nH]c2ccccc12)C(=O)N[C@@H](C)C(=O)N[C@@H](Cc1ccc(O)cc1)C(=O)N[C@H](C(=O)N[C@H](C(=O)N[C@@H](CC(N)=O)C(=O)N1CCC[C@H]1C(=O)N[C@@H](CCCN=C(N)N)C(=O)N[C@@H](CCCCN)C(=O)N[C@@H](CC(C)C)C(=O)N[C@@H](Cc1ccc(O)cc1)C(=O)N[C@@H](CC(=O)O)C(=O)N[C@@H](Cc1ccc(O)cc1)C(=O)N[C@@H](CCCCNC(=O)CCN1C(=O)C=CC1=O)C(N)=O)[C@@H](C)O)[C@@H](C)O)C(C)C (Ac-RNPDGDVGGPWAYTTNPRKLYDYK(Propanoyl(3-maleimido))-NH2)  0.22%
2. CC(C)C[C@H](NC(=O)[C@H](CCCCN)NC(=O)[C@H](CCCN=C(N)N)NC(=O)[C@@H]1CCCN1C(=O)CCN1C(=O)C=CC1=O)C(=O)N[C@@H](Cc1ccc(O)cc1)C(=O)N[C@@H](CC(=O)O)C(=O)N[C@@H](Cc1ccc(O)cc1)C(N)=O ({Propanoyl(3-maleimido)}-PRKLYDY-NH2)  1.1%
3. CC(C)C[C@H](NC(=O)[C@H](CCCCN)NC(=O)[C@H](CCCN=C(N)N)NC(=O)[C@@H]1CCCN1C(=O)[C@H](CC(N)=O)NC(=O)[C@@H](NC(=O)[C@@H](NC(=O)[C@H](Cc1ccc(O)cc1)NC(=O)[C@H](C)NC(=O)[C@H](Cc1c[nH]c2ccccc12)NC(=O)[C@@H]1CCCN1C(=O)CNC(=O)CNC(=O)[C@@H](NC(=O)[C@H](CC(=O)O)NC(=O)CNC(=O)[C@H](CC(=O)O)NC(=O)[C@@H]1CCCN1C(=O)[C@H](CC(N)=O)NC(=O)[C@H](CCCN=C(N)N)NC(=O)CCN1C(=O)C=CC1=O)C(C)C)[C@@H](C)O)[C@@H](C)O)C(=O)N[C@@H](Cc1ccc(O)cc1)C(=O)N[C@@H](CC(=O)O)C(=O)N[C@@H](Cc1ccc(O)cc1)C(N)=O ({Propanoyl(3-maleimido)}-RNPDGDVGGPWAYTTNPRKLYDY-NH2)  1.6%
